Read-outs that look alike come from different tables or passages of the source.
Columns and labels:
[1] = tested on: Type 1 diabetes model of New Zealand albino rabbits; experiment: Blood sugar lowering experiment on Type 1 diabetes model (IDDM) rabbits; assay type: in vivo; conditions: subcutaneous 0.2 mg/kg; for time the blood sugar lowering effect may sustain: tetraoxypyrimidine rabbits, empty stomach blood sugar; for hypoglycemic activity: rabbit Type 1 diabetes model
Method: 40 male New Zealand albino rabbits (purchased from the Third Military Medical Univ., China) with body weight of 2-3 kg were fed with water only and no food for 24 hours, and then subject to 5 ml/kg of ear vein single injection of tetraoxypyrimidine solution (with concentration of 20 mg/ml) to establish models. After the injection, the rabbits were immediately fed with food and water. After 3 days of model establishing, blood was sampled every day from ear vein after fasting for 6 hours, and blood sugar value was detected with glucometer, wherein a blood sugar value of >11.1 mmol/L indicates successful modeling. […] Groups B, C, and D were respectively subject to subcutaneous administration by a dosage of 0.2 mg/kg, and group A was injected with isovolumetric solvent. Before administration (i.e., 0 hour) and after 1, 2, 4, 8, 12, 24, 36, 48, 60, 72, 84, and 96 hours of administration, blood was sampled from ear vein for the detection of empty stomach (fasting for 6 hours) blood sugar value (Fast Glucometer, Bayer). The average blood sugar value was calculated and time activity curve was made (FIG. 6).
The average blood sugar value was calculated and time activity curve was made (FIG. 7).

[2] = tested on: Type 1 diabetes model of KunMing mice; experiment: Blood sugar lowering in mice Type 1 diabetes model; assay type: in vivo; conditions: subcutaneous 0.25 mg/kg, STZ mice; for time the blood sugar lowering effect may sustain: empty stomach blood sugar
Method: 70 healthy KunMing male SPF mice (purchased from the Third Military Medical Univ., China) with body weight of 25-30 g were fed with water only and no food for 14 hours, and then subject to 120 mg/kg of rapid intraperitoneal injection of streptozotocin (STZ) solution (4.8 mg/ml) that was prepared with citric acid- trisodium citrate buffer, to establish a Type 1 diabetes model. After the injection, the mice were immediately fed with food and water. After 48 hours of model establishing, blood was sampled from caudal vein, and blood sugar value was detected with glucometer (Bayer's Fast Glucometer) after fasting for 2 hours, wherein a blood sugar value of >11.1 mmol/L indicates successful modeling. […] Groups B, C, and D were respectively subject to subcutaneous administration by a dosage of 0.25 mg/kg, and group A was injected with isovolumetric solvent. Before administration (i.e., 0 hour) and after 1, 2, 6, 10, 15, 18, and 24 hours of administration, blood was sampled from caudal vein for the detection of empty stomach (fasting for 2 hours) blood sugar value. The average blood sugar value was calculated and time activity curve was made (FIG. 4).
The average blood sugar value was calculated and time activity curve was made (FIG. 5).

[3] = tested on: Beagle dog Type 1 diabetes model; experiment: Blood sugar lowering experiment of DesB30-20 k conjugate on Beagle dog Type 1 diabetes model; assay type: in vivo, Beagle dogs
Method: 20 healthy Beagle dogs (purchased from the Third Military Medical Univ., China) with body weight of 5-8 kg were fed with water only and no food for 24 hours, and then subject to foreleg subcutaneous vein injection of tetraoxypyrimidine solution (200 mg/ml) and STZ solution (120 mg/ml), with respective dosage of 50 mg/kg and 30 mg/kg, to establish Type 1 diabetes models. After the injection, the dogs were immediately fed with food and water. After 72 hours of model establishing, successful modeling was indicated by the signs of polyphagia, polydipsia, polyuria, lose weight, and blood sugar value of >11.1 mmol/L. 12 modeled dogs were randomly divided into 3 groups, 4 for each group (group A, control, group B, administration by 0.05 mg/kg, and group C, administration by 0.10 mg/kg), and subject to subcutaneous administration for one time. After 0, 2, 6, 12, 18, 24, 36, 48, 72, 96, and 120 hours of administration, blood was sampled from hindlimb vein for the detection of empty stomach (fasting for 6 hours) blood sugar value (GOD-POD method). The average blood sugar value was calculated and single administration time activity curve was made (FIG. 8). […] Then, the model animals were tested with multiple times of subcutaneous administration, with an interval of 72 hours (with a dosage of 0.05 mg/kg, 0.10 mg/kg, or isovolumetric solvent) for 6 times. From Day 1 to Day 21 after the administration, empty stomach blood sugar value was detected every three days, and blood was sampled after the last administration for pharmacokinetics experiments. […] The durations of hypoglycemic activity for single and multiple administrations are basicly the same, i.e., 72 hours. During the multiple administrations, the empty stomach blood sugar value of animals in administration groups were kept in average with about 5 mmol/L, whereas the empty stomach blood sugar value of animals in control group were kept in average with about 25 mmol/L.

[4] = in animals; cited from earlier work
[5] = in human body; cited from earlier work

Substance | time the blood sugar lowering effect may sustain [1] | time the blood sugar lowering effect may sustain [2] | hypoglycemic activity [1] | hypoglycemic activity [2] | other results
Ins-5K: recombinant human insulin conjugate with 5K mPEG-SPA at Lys B29, prepared as in Example 2 | about 15 hours | about 8 hours |  |  | 
DesB30-20K: DesB30 recombinant human insulin coupled at the ε-amino group of Lys B29 to 20K mPEG-SPA via amide bond | about 55 hours | about 18 hours | significant hypoglycemic activity | significant hypoglycemic activity | hypoglycemic activity ([3]; Beagle dogs Type 1 diabetes model, 0.05 and 0.10 mg/kg): significant hypoglycemic activity; average empty stomach blood sugar value during multiple administrations ([3]; administration groups (0.05 or 0.10 mg/kg s.c., every 72 hours, 6 times), control about 25 mmol/L): about 5 mmol/L; time blood sugar is effectively lowered ([3]; single subcutaneous administration, 0.10 mg/kg): 72 h; duration of hypoglycemic activity for single and multiple administrations ([3]; single, and multiple subcutaneous administrations (interval 72 hours, 6 times)): 72 h
DesB30-10K: DesB30 recombinant human insulin coupled at the ε-amino group of Lys B29 to 10K mPEG-SPA via amide bond | about 30 hours | about 12 hours | significant hypoglycemic activity | significant hypoglycemic activity | 
Ins-10K: recombinant human insulin conjugate with 10K mPEG-SPA at Lys B29, prepared as in Example 3 | about 35 hours | about 12 hours |  |  | 
DesB30-5K: DesB30 recombinant human insulin coupled at the ε-amino group of Lys B29 to 5K mPEG-SPA via amide bond | about 15 hours | about 8 hours | significant hypoglycemic activity | significant hypoglycemic activity | 
Ins-20K: recombinant human insulin conjugate with 20K mPEG-SPA at Lys B29, prepared as in Example 4 | about 55 hours | about 18 hours |  |  | 
insulin detemir |  |  |  |  | duration of activity [4]: 12 h; duration of activity [5]: 24 h

— patent publication US20140057841A1, “HUMAN INSULIN AND ANALOG CONJUGATE THEREOF” (Chongqing Fagen Biomedical Inc., priority 2011, published 2014)
